Literature values as cited in patent publication US12528029B2, “Separating and quantifying unbound target analytes from biological samples” (ARUP Laboratories, Inc., priority 2017, dated 2026).

Tests used:
[1] = molecular target: T1, sex hormone-binding globulin (SHBG) (Homo sapiens, UniProt P04278); settings: share of the protein-bound Te; remainder weakly bound to albumin
T1 sequence (P04278 30-402): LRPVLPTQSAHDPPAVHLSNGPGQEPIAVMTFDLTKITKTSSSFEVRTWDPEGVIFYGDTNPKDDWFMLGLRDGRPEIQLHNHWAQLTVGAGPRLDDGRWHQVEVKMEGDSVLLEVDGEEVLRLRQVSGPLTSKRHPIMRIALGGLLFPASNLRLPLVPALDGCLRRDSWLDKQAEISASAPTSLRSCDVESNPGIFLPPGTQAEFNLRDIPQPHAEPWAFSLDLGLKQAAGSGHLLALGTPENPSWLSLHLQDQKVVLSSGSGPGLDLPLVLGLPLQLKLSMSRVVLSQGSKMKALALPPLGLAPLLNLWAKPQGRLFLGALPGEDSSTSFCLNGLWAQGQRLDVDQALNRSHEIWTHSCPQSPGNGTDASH

albumin = molecular target: T2, albumin (Homo sapiens, UniProt P02768)
T2 construct: host or cells: circulating blood / serum
T2 sequence (P02768 25-609): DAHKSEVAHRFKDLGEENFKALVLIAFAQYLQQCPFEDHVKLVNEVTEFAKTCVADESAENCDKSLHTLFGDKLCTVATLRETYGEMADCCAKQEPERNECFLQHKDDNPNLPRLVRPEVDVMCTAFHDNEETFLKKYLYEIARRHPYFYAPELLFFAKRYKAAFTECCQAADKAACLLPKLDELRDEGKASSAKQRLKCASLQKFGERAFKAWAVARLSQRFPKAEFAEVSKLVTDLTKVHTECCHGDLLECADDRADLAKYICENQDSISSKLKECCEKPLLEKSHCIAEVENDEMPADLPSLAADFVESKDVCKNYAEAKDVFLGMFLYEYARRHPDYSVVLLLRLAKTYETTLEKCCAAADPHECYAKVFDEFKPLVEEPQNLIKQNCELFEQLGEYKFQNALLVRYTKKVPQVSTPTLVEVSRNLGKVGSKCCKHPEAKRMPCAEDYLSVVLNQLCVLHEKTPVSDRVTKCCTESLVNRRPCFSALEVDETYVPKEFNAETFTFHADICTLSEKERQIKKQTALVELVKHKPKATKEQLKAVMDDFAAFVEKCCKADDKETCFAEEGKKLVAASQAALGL

[2] = molecular target: T3, vitamin D binding protein (VDBP) (Homo sapiens, UniProt P02774); settings: serum
T3 construct: host or cells: circulating blood / serum
T3 sequence (P02774 17-474): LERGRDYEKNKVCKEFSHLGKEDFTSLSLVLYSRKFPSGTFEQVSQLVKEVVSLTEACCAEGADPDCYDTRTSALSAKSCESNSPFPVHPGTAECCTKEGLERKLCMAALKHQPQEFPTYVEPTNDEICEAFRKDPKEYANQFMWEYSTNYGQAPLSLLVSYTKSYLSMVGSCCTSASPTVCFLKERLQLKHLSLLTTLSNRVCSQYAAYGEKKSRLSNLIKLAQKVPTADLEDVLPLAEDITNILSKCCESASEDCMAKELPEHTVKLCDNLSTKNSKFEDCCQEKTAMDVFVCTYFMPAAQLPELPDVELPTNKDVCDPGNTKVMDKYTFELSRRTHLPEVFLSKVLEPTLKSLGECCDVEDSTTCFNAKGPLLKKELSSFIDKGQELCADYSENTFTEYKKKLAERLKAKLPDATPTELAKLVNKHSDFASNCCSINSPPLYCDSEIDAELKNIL

Compound	protein bound Te strongly bound to SHBG [1]	fraction of Te present in unbound, free form (circulating in blood)	25OHD circulating in blood bound to albumin (albumin)	circulating 25OHD that is free (not protein bound) (circulating)	circulating vitamin D in the form of 25OHD, tightly bound to VDBP [2]
C[C@]12CC[C@H]3[C@@H](CCC4=CC(=O)CC[C@@]43C)[C@@H]1CC[C@@H]2O [Te, Testosterone]	60-70%	1-3%	–	–	–
25-hydroxy vitamin D [25OHD]	–	–	10-15%	Less than 0.1%	85-90%
